According to patent EP1808169B1, “Polyhydroxylated aromatic compounds for the treatment of amyloidosis and alpha-synuclein fibril diseases” (priority 1999, dated 2001):

Key:
Assay type in all cases: biochemical
Aβ 1-42 amyloid fibrils = assay: Thioflavin T fluorometry: disassembly/disruption of pre-formed Aβ 1-42 amyloid fibrils; conditions: overnight (~18 hours) at 37°C, pH 7.0, mean of triplicate ± standard deviation
Procedure: For the first study, 1 mg of Aβ 1-42 (Bachem Inc., Torrance, CA, USA) was dissolved in 1.0 ml of double distilled water (1 mg/ml solution). 25 µM of Aβ 1-42 was then incubated overnight (~18 hours) at 37°C, in the absence or presence of 100µg/ml of the following compounds: 1) EDTA (Sigma Chemical Company, St. Louis, MO, USA), 2) myricetin (Acros, Somerville, New Jersey, USA), 3) exifone (Acros) 4) pyrogallol (Sigma), 5) tannic acid (Acros), 6) pyrocatechol (Acros), 7) quercetin (Sigma), 8) ellagic acid (Acros), 9) 1,2,4-benzenetriol (Acros), 10) 5-hydroxydopamine (Acros), 11) gallamide hydrate (Acros), 12) gallic acid (Sigma), 13) ethyl gallate (Acros), 14) quinic acid (Acros), 15) propyl gallate (Sigma), and 16) phloroglucide (Acros), each in the presence of 150 mM Tris HCl, 10 mM NaCl (pH 7.0) with 0.02% sodium azide. In this study, the Aβ 1-42:compound weight ratio was 1:1.
For the second study, 1 mg of Aβ 1-42 (Bachem) was dissolved in 1.0 ml of double distilled water (1 mg/ml solution). 25 µM of Aβ 1-42 was then incubated overnight (~18 hours) at 37°C, in the absence or presence of 50µg/ml of the following compounds: 1) gallic acid, 2) ethyl gallate, 3) quinic acid, 4) gallamide trihydrate, 5) ellagic acid, 6) propyl gallate, and 7) pyrogallol, each in the presence of 150 mM Tris HCl, 10 mM NaCl (pH 7.0) with 0.02% sodium azide. In this study, the Aβ 1-42:compound weight ratio was 2:1.
Thioflavin T is known to bind to fibrillar amyloid proteins, and an increase in fluorescence correlates with an increase in amyloid fibril formation, whereas a decrease in fluorescence correlates with a decrease in amyloid fibrils due to disassembly and/or disruption. The Alzheimer's Aβ protein (1-42) when placed in solution, such as distilled water, tends to spontaneously form amyloid fibrils. Using this sensitive assay, any decreases or increases in fluorescence was previously shown to correlate with a decrease or increase in the amount of amyloid fibrils (see the documents cited above), allowing one to identify and quantitate the extent of potential inhibitors and/or enhancers of Alzheimer's Aβ 1-42 amyloid fibrils.
To assess the effects of each compound on potential disassembly/ disruption of preformed Aβ 1-42 fibrils, 50 µl of Aβ 1-42 with or without test compounds (described above) were added to 1.2 ml of 100µM Thioflavin T (Sigma) in 50mM NaH2PO4 (pH 6.0) for fluorometry readings. […] Fluorescence emission at 482 nm was measured on a Turner instrument-model 450 fluorometer at an excitation wavelength of 450 nm. For each determination, the fluorometer was calibrated by zeroing in the presence of the Thioflavin T reagent alone, and by setting the 50 ng/ml riboflavin (Sigma Chemical Co., St. Louis, MO) in the Thioflavin T reagent to 1800 fluorescence units. All fluorescence determinations were based on these references and any fluorescence given off by any of the compounds in the presence of the Thioflavin T reagent was always subtracted from all pertinent readings.
For all fibrillogenesis studies utilizing Thioflavin T fluorometry, as disclosed herein, comparisons of amyloid protein in the presence or absence of test compounds were based on paired Student's t tests with data shown as the mean of triplicate measurements ± standard deviation.

Aβ 1-40 amyloid fibrils = assay: Modified Congo red-Aβ spectrophotometric assay: disaggregation of pre-formed Aβ 1-40 fibrils (3 days incubation); conditions: Aβ:compound weight ratio 2:1; fibrillized Aβ 1-40 incubated with compound 3 days at 37°C in TBS pH 7.0; Δ absorbance at 540 nm; triplicate
Procedure: In this study, a Congo red-Aβ spectrophotometric assay (Klunk et al., Anal. Biochem. 266:66-76, 1999) was modified to determine the effectiveness of polyhydroxylated aromatic compounds on the disaggregation of pre-formed Aβ 1-40 amyloid fibrils. For this assay, 1 mg of Aβ 1-40 (Bachem) was incubated for 4 days in distilled water at 37°C to spontaneously produce amyloid fibrils. 25pM of fibrillized Aβ 1-40 was then incubated in triplicate with various test compounds for 3 days at 37°C in Tris-buffered saline (TBS)(100 mM Tris; 50 mM NaCl; pH 7.0, with 0.02% sodium azide), at an Aβ:compound weight ratio of 2:1. Following incubation, 50µl of 360 µM Congo red (Sigma) in distilled water was then added to 250 µl of each incubation mixture, giving a final Aβ:Congo red molar ratio of 1:3. After 10 minutes, the absorbance at 405 nm (reference wavelength to account for the absorbance of Congo red alone at 540 nm) and 540 nm (sample absorbance where "sample" refers to Aβ alone, test compound alone, or Aβ plus test compound, all in the presence of Congo red) was determined using a Biorad Model 550 BLISA Plate Reader (Biorad, Hercules, CA, USA). The absorbance at wavelength 405 nm was automatically subtracted by the ELISA plate reader from the absorbance at wavelength 540 nm (difference is referred to as Δ absorbance)(see Klunk et al. cited above). Therefore, the Δ absorbance reading at 540 nm was proportional to the amount of aggregated Aβ left in solution (Klunk et al.).
For all experiments involving test compounds, the Δ absorbance reading at 540 nm of the test compound alone (in the absence of Aβ), was always subtracted from the corresponding Δ absorbance reading at 540 nm of the test compound in the presence of Aβ. Using this modification of the method of Klunk et al., the use of a greater final concentration of Congo red, i.e. 60µM instead of 14µM, in the presence of fibrillar Aβ gave an overall absorbance at 540 nm that was always below 1.0 Absorbance Unit (AU), and well within the linear absorbance range.
The following polyhydroxylated aromatic containing compounds were tested using the above described Congo red-Aβ spectrophotometric assay to determine their effectiveness on disaggregation of pre-formed Aβ 1-40 amyloid fibrils: 1) gallic acid, 2) ethyl gallate, 3) quinic acid, 4) gallamide trihydrate, 5) ellagic acid, 6) propyl gallate, and 7) pyrogallol.

human amylin [1] = target: T1, human amylin (Homo sapiens, UniProt P10997); assay: Thioflavin T fluorometry: disassembly/disruption of islet amyloid (amylin) fibrils; conditions: 25 µM human amylin, 100µg/ml compound, amylin:compound weight ratio 1:1, overnight (~18 hours) at 37°C, pH 7.0; read-out: Fluorescence inhibition, %
T1 construct: This amyloid protein involved consists of a 37 amino acid protein known as islet amyloid polypeptide or amylin; purchased Bachem
T1 sequence (P10997 34-70 limits assumed): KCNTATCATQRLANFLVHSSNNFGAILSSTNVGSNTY

human amylin [2] = target: T1, human amylin; assay: Congo red staining of amylin fibrils on gelatin-coated slides (polarized light); conditions: result in words; amylin + compound after overnight incubation, compared with amylin alone
Procedure: Following Thioflavin T fluorometry readings as described in Example 1, 5µl aliquots of amylin only, amylin + myricetin, amylin + exifone, and amylin + tannic acid were also taken, allowed to air dry overnight on gelatin-coated slides, and stained with Congo red as previously described (Castillo et al., Diabetes 47:612-620, 1998).

| SMILES | Fluorescence inhibition, %, at the Aβ 1-42:compound w/w ratios given (Aβ 1-42 amyloid fibrils; Aβ 1-42:compound w/w ratio 2:1, 25 µM Aβ 1-42, 50µg/ml compound) | Decrease in absorbance, % (Aβ 1-40 amyloid fibrils) | inhibition at 100 µg/mL (human amylin [1]) | Congo red staining (human amylin [2]) | Fluorescence inhibition, %, at the Aβ 1-42:compound w/w ratios given (Aβ 1-42 amyloid fibrils; Aβ 1-42:compound w/w ratio 1:1, 25 µM Aβ 1-42, 100µg/ml compound) |
| --- | --- | --- | --- | --- | --- |
| O=C(O)c1cc(O)c(O)c(O)c1 [Gallic acid, gallic acid] | 44 ± 1.7% | 52 ± 0.4% |  |  |  |
| O=C(OC[C@H]1O[C@@H](OC(=O)c2cc(O)c(O)c(OC(=O)c3cc(O)c(O)c(O)c3)c2)[C@H](OC(=O)c2cc(O)c(O)c(OC(=O)c3cc(O)c(O)c(O)c3)c2)[C@@H](OC(=O)c2cc(O)c(O)c(OC(=O)c3cc(O)c(O)c(O)c3)c2)[C@@H]1OC(=O)c1cc(O)c(O)c(OC(=O)c2cc(O)c(O)c(O)c2)c1)c1cc(O)c(O)c(OC(=O)c2cc(O)c(O)c(O)c2)c1 [Tannic acid, tannic acid] |  |  | 83.8 ± 1.4% | marked decrease in Congo red staining | 77 ± 1.3% |
